Test results reported in US20170112861A1, “DRUG DELIVERY ENHANCER COMPRISING SUBSTANCE FOR ACTIVATING LYSOPHOSPHOLIPID RECEPTORS” (Osaka University, priority 2014, published 2017).

Experiments:
[1] = tested on: newly formed blood vessels with increased permeability; test: Hindlimb ischemia model, edema (hindlimb circumference); assay type: in vivo, mice; conditions: LPA 3 mg/kg i.p. once daily for three days, 24 hours after final administration, vs control
Source text: A hindlimb ischemia model is used as a pathological model of Buerger's disease and chronic arteriosclerosis obliterans. In the production of such a model, a blood vessel in the hindlimb of a mouse is dissected to induce ischemia in the region supplied by the blood vessel. The surgical dissection also causes inflammation. The ischemia and inflammation induce angiogenesis. The newly formed blood vessels have increased permeability, which induces edema in the muscles of the hindlimb. An experiment was performed to determine whether LPA inhibits such increased permeability of newly formed blood vessels induced by inflammation or ischemia.
C57BL/6 NCrSlc mice aged 6 weeks (females, SLC, Inc.) were used. An incision was made in the inguinal skin of the right hindlimb under anesthesia with pentobarbital (Kyoritsu Seiyaku Corporation). The femoral vein was ligated at the proximal end, and the saphenous artery and vein were ligated at the distal end. The arteries and veins were excised along with their side branches. The skin incision was closed with a sterilized surgical suture (Natsume Seisakusho). The animal was placed in a 37° C. incubator until the animal recovered from anesthesia. […] At 24 hours after the final administration, the hindlimb circumference was measured.

[2] = tested on: newly formed blood vessels in the choroid; test: Age-related macular degeneration model (laser-induced choroidal neovascularization), dextran leakage; assay type: in vivo, mice; conditions: LPA 3 mg/kg i.p. on days 5 and 6 after laser irradiation, day 7, vs control
Source text: C57BL/6 NCrSlc mice aged 8 weeks (females, SLC, Inc.) were used. Tropicamide (Santen Pharmaceutical) was dropped in the eyes of the mice under anesthesia with pentobarbital (Kyoritsu Seiyaku Corporation) to dilate the pupil. The retina surrounding the optic disc of the ocular fundus was irradiated with a laser (Ultima 2000 SE) at four sites in each of the eyes of the mice under observation with a slit lamp microscope for the induction of choroidal neovascularization. The laser irradiation conditions were 150 mW, 0.05 seconds, and 75 μm. LPA (3 mg/kg in 100 μL PBS) was intraperitoneally administered to LPA group (n=3) on days 5 and 6 after laser irradiation, and PBS (100 μL) was intraperitoneally administered to control group (n=3) on days 5 and 6 after laser irradiation. On day 7 after laser irradiation (at 48 hours after first administration of LPA), FITC-labeled 70 kDa dextran (Sigma) was administered to the tail vein of the mice under anesthesia with pentobarbital. The dextran was prepared as a solution by dissolving and diluting the FITC-labeled 70 kDa dextran in PBS to a concentration of 5 mg/mL, and 50 μL of the solution was used for the administration. At 10 minutes after dextran administration, the eyeballs were collected. […]

[3] = tested on: lumen of tumor blood vessels of LLC cell tumors; test: Structural changes in lumen of tumor blood vessels (scanning electron microscopy); assay type: in vivo; conditions: LLC tumor-bearing mice, LPA 3 mg/kg i.p., 24 hours after administration
Method: LLC cells were subcutaneously inoculated into C57BL/6 NCrSlc mice aged 8 weeks (females, SLC, Inc.) in the same manner as in Example 1. An LPA administration solution was prepared in the same manner as in Example 1. Mice on day 9 post-inoculation of LLC cells (individuals with a tumor volume of 60 to 80 mm^3) were subjected to the experiment. The mice were divided into two groups: control group and LPA group (n=3). LPA (3 mg/kg in 100 μL PBS) or PBS (100 μL) was administered intraperitoneally. At 24 hours after LPA or PBS administration, mice were perfusion fixed under anesthesia with pentobarbital (Kyoritsu Seiyaku Corporation). The fixative used was 0.1 M phosphate buffer (pH 7.4) containing 2% formaldehyde and 2.5% glutaraldehyde. Tumors were then harvested and immersed in the same fixative as that used for perfusion and shaken at 4° C. overnight. The specimens were further immersed in 0.1 M phosphate buffer (pH 7.4) containing 1% osmium tetroxide and 0.5% potassium ferrocyanide. The specimens were dehydrated in an ascending series of ethanol, then the alcohol was replaced with t-butyl alcohol and the specimens were freeze-dried.

B16-BL6 cells = test: Lung metastasis from primary lesion in B16-BL6 cell tumor-bearing mice; assay type: in vivo; conditions: B16-BL6 tumors, LPA 3 mg/kg i.p. once daily until day 21, counted on day 42, vs control, p<0.01
Method: B16-BL6 cells (1×10^6 cells in 100 μL PBS per animal) were subcutaneously injected into C57BL/6 NCrSlc mice aged 8 weeks (females, SLC, Inc.). On day 7 post-inoculation of B16-BL6 cells, mice with a tumor volume of 30 to 50 mm^3 were selected. The mice were divided into two groups: control group and LPA group (n=3). LPA (3 mg/kg in 100 μL PBS) or PBS (100 μL) was administered intraperitoneally. LPA or PBS was administered once daily until day 21 post-inoculation. On day 42 post-inoculation of B16-BL6 cells, mice were euthanized and the lung was harvested. The number of metastatic colonies in the harvested lung was counted under a stereoscopic microscope (Leica). For the statistical analysis, Student's t-test was performed.

For lysophosphatidic acid [LPA], the “hindlimb circumference (edema)” value [1] was “significantly reduced”, the “leakage of FITC-labeled 70 kDa dextran from newly formed blood vessels” value [2] was “the leakage of dextran was significantly inhibited” and the “size of the newly formed blood vessels in the choroid” value [2] was “no significant difference was observed”. The “intraluminal surface of tumor blood vessels” value [3] was “the intraluminal surface of the blood vessels was very smooth” and the “lung metastasis (number of lung metastatic colonies)” value (B16-BL6 cells) was “significantly inhibited”.
